Assay results taken from paper PMC10905675, “INX-315, a Selective CDK2 Inhibitor, Induces Cell Cycle Arrest and Senescence in Solid Tumors” (Cancer Discovery, 2023).

Experiments:
Settings in all cases: INX-0315 at 100nM
ABL1 M351T = biological target: T1, ABL1 M351T (Homo sapiens, UniProt P00519, M351T); experiment: SelectScreen LanthaScreen Binding
T1 construct: purchased Thermo Fisher Scientific SelectScreen (plus Nanosyn / Reaction Biology for CDK/cyclin lines)
How it was run: (§1)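 Both platform types ran at predefined settings. Inhibitor was applied first at 100 nmol/L (1% DMSO), later in ten-point titrations spanning 1 µmol/L to 0.0495 nmol/L.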

ACVR1 (ALK2) R206H = biological target: T2, ACVR1 (ALK2) R206H (Homo sapiens, UniProt Q04771, R206H); experiment: SelectScreen LanthaScreen Binding
T2 construct: purchased Thermo Fisher Scientific SelectScreen (plus Nanosyn / Reaction Biology for CDK/cyclin lines)
How it was run: as §1

ACVRL1 (ALK1) = biological target: T3, ACVRL1 (ALK1) (Homo sapiens, UniProt P37023); experiment: SelectScreen LanthaScreen Binding
T3 construct: purchased Thermo Fisher Scientific SelectScreen (plus Nanosyn / Reaction Biology for CDK/cyclin lines)
How it was run: as §1

AMPK (A1/B1/G3) = biological target: T4, AMPK (A1/B1/G3) (Homo sapiens, UniProt Q13131); experiment: SelectScreen LanthaScreen Binding
T4 construct: purchased Thermo Fisher Scientific SelectScreen (plus Nanosyn / Reaction Biology for CDK/cyclin lines)
How it was run: as §1

CAMKK2 (CaMKK beta) = biological target: T5, CAMKK2 (CaMKK beta) (Homo sapiens, UniProt Q96RR4); experiment: SelectScreen LanthaScreen Binding
T5 construct: purchased Thermo Fisher Scientific SelectScreen (plus Nanosyn / Reaction Biology for CDK/cyclin lines)
How it was run: as §1

CDK13/cyclin K = biological target: T6, CDK13/cyclin K (Homo sapiens, UniProt Q14004); experiment: SelectScreen LanthaScreen Binding
T6 construct: purchased Thermo Fisher Scientific SelectScreen (plus Nanosyn / Reaction Biology for CDK/cyclin lines)
How it was run: as §1

CDK14 (PFTK1)/cyclin Y = biological target: T7, CDK14 (PFTK1)/cyclin Y (Homo sapiens, UniProt O94921); experiment: SelectScreen LanthaScreen Binding
T7 construct: purchased Thermo Fisher Scientific SelectScreen (plus Nanosyn / Reaction Biology for CDK/cyclin lines)
How it was run: as §1

CDK5 (Inactive) = biological target: T8, CDK5 (Inactive) (Homo sapiens, UniProt Q00535); experiment: SelectScreen LanthaScreen Binding
T8 construct: purchased Thermo Fisher Scientific SelectScreen (plus Nanosyn / Reaction Biology for CDK/cyclin lines)
How it was run: as §1

CDK9 (Inactive) = biological target: T9, CDK9 (Inactive) (Homo sapiens, UniProt P50750); experiment: SelectScreen LanthaScreen Binding
T9 construct: purchased Thermo Fisher Scientific SelectScreen (plus Nanosyn / Reaction Biology for CDK/cyclin lines)
How it was run: as §1

CLK4 = biological target: T10, CLK4 (Homo sapiens, UniProt Q9HAZ1); experiment: SelectScreen LanthaScreen Binding
T10 construct: purchased Thermo Fisher Scientific SelectScreen (plus Nanosyn / Reaction Biology for CDK/cyclin lines)
How it was run: as §1

DYRK2 = biological target: T11, DYRK2 (Homo sapiens, UniProt Q92630); experiment: SelectScreen LanthaScreen Binding
T11 construct: purchased Thermo Fisher Scientific SelectScreen (plus Nanosyn / Reaction Biology for CDK/cyclin lines)
How it was run: as §1

FGFR3 K650M = biological target: T12, FGFR3 K650M (Homo sapiens, UniProt P22607, K650M); experiment: SelectScreen LanthaScreen Binding
T12 construct: purchased Thermo Fisher Scientific SelectScreen (plus Nanosyn / Reaction Biology for CDK/cyclin lines)
How it was run: as §1

IRAK3 = biological target: T13, IRAK3 (Homo sapiens, UniProt Q9Y616); experiment: SelectScreen LanthaScreen Binding
T13 construct: purchased Thermo Fisher Scientific SelectScreen (plus Nanosyn / Reaction Biology for CDK/cyclin lines)
How it was run: as §1

LIMK1 = biological target: T14, LIMK1 (Homo sapiens, UniProt P53667); experiment: SelectScreen LanthaScreen Binding
T14 construct: purchased Thermo Fisher Scientific SelectScreen (plus Nanosyn / Reaction Biology for CDK/cyclin lines)
How it was run: as §1

LIMK2 = biological target: T15, LIMK2 (Homo sapiens, UniProt P53671); experiment: SelectScreen LanthaScreen Binding
T15 construct: purchased Thermo Fisher Scientific SelectScreen (plus Nanosyn / Reaction Biology for CDK/cyclin lines)
How it was run: as §1

MAP2K2 (MEK2) = biological target: T16, MAP2K2 (MEK2) (Homo sapiens, UniProt P36507); experiment: SelectScreen LanthaScreen Binding
T16 construct: purchased Thermo Fisher Scientific SelectScreen (plus Nanosyn / Reaction Biology for CDK/cyclin lines)
How it was run: as §1

MAP2K5 (MEK5) = biological target: T17, MAP2K5 (MEK5) (Homo sapiens, UniProt Q13163); experiment: SelectScreen LanthaScreen Binding
T17 construct: purchased Thermo Fisher Scientific SelectScreen (plus Nanosyn / Reaction Biology for CDK/cyclin lines)
How it was run: as §1

MAP3K14 (NIK) = biological target: T18, MAP3K14 (NIK) (Homo sapiens, UniProt Q99558); experiment: SelectScreen LanthaScreen Binding
T18 construct: purchased Thermo Fisher Scientific SelectScreen (plus Nanosyn / Reaction Biology for CDK/cyclin lines)
How it was run: as §1

MET D1228H = biological target: T19, MET D1228H (Homo sapiens, UniProt P08581, D1228H); experiment: SelectScreen LanthaScreen Binding
T19 construct: purchased Thermo Fisher Scientific SelectScreen (plus Nanosyn / Reaction Biology for CDK/cyclin lines)
How it was run: as §1

MKNK2 (MNK2) = biological target: T20, MKNK2 (MNK2) (Homo sapiens, UniProt Q9HBH9); experiment: SelectScreen LanthaScreen Binding
T20 construct: purchased Thermo Fisher Scientific SelectScreen (plus Nanosyn / Reaction Biology for CDK/cyclin lines)
How it was run: as §1

MYO3A (MYO3 alpha) = biological target: T21, MYO3A (MYO3 alpha) (Homo sapiens, UniProt Q8NEV4); experiment: SelectScreen LanthaScreen Binding
T21 construct: purchased Thermo Fisher Scientific SelectScreen (plus Nanosyn / Reaction Biology for CDK/cyclin lines)
How it was run: as §1

NEK8 = biological target: T22, NEK8 (Homo sapiens, UniProt Q86SG6); experiment: SelectScreen LanthaScreen Binding
T22 construct: purchased Thermo Fisher Scientific SelectScreen (plus Nanosyn / Reaction Biology for CDK/cyclin lines)
How it was run: as §1

NUAK2 = biological target: T23, NUAK2 (Homo sapiens, UniProt Q9H093); experiment: SelectScreen LanthaScreen Binding
T23 construct: purchased Thermo Fisher Scientific SelectScreen (plus Nanosyn / Reaction Biology for CDK/cyclin lines)
How it was run: as §1

PKMYT1 = biological target: T24, PKMYT1 (Homo sapiens, UniProt Q99640); experiment: SelectScreen LanthaScreen Binding
T24 construct: purchased Thermo Fisher Scientific SelectScreen (plus Nanosyn / Reaction Biology for CDK/cyclin lines)
How it was run: as §1

RET V804M = biological target: T25, RET V804M (Homo sapiens, UniProt P07949, V804M); experiment: SelectScreen LanthaScreen Binding
T25 construct: purchased Thermo Fisher Scientific SelectScreen (plus Nanosyn / Reaction Biology for CDK/cyclin lines)
How it was run: as §1

SIK1 = biological target: T26, SIK1 (Homo sapiens, UniProt P57059); experiment: SelectScreen LanthaScreen Binding
T26 construct: purchased Thermo Fisher Scientific SelectScreen (plus Nanosyn / Reaction Biology for CDK/cyclin lines)
How it was run: as §1

TAOK1 = biological target: T27, TAOK1 (Homo sapiens, UniProt Q7L7X3); experiment: SelectScreen LanthaScreen Binding
T27 construct: purchased Thermo Fisher Scientific SelectScreen (plus Nanosyn / Reaction Biology for CDK/cyclin lines)
How it was run: as §1

TAOK3 (JIK) = biological target: T28, TAOK3 (JIK) (Homo sapiens, UniProt Q9H2K8); experiment: SelectScreen LanthaScreen Binding
T28 construct: purchased Thermo Fisher Scientific SelectScreen (plus Nanosyn / Reaction Biology for CDK/cyclin lines)
How it was run: as §1

TEC = biological target: T29, TEC (Homo sapiens, UniProt P42680); experiment: SelectScreen LanthaScreen Binding
T29 construct: purchased Thermo Fisher Scientific SelectScreen (plus Nanosyn / Reaction Biology for CDK/cyclin lines)
How it was run: as §1

TEK (TIE2) Y1108F = biological target: T30, TEK (TIE2) Y1108F (Homo sapiens, UniProt Q02763, Y1108F); experiment: SelectScreen LanthaScreen Binding
T30 construct: purchased Thermo Fisher Scientific SelectScreen (plus Nanosyn / Reaction Biology for CDK/cyclin lines)
How it was run: as §1

TLK2 = biological target: T31, TLK2 (Homo sapiens, UniProt Q86UE8); experiment: SelectScreen LanthaScreen Binding
T31 construct: purchased Thermo Fisher Scientific SelectScreen (plus Nanosyn / Reaction Biology for CDK/cyclin lines)
How it was run: as §1

ULK3 = biological target: T32, ULK3 (Homo sapiens, UniProt Q6PHR2); experiment: SelectScreen LanthaScreen Binding
T32 construct: purchased Thermo Fisher Scientific SelectScreen (plus Nanosyn / Reaction Biology for CDK/cyclin lines)
How it was run: as §1

GRK6 = biological target: T33, GRK6 (Homo sapiens, UniProt P43250); experiment: SelectScreen ZLYTE; assay type: biochemical
T33 construct: purchased Thermo Fisher Scientific SelectScreen (plus Nanosyn / Reaction Biology for CDK/cyclin lines)
Source text: (§2) INX-315 was first evaluated in the SelectScreen Biochemical Kinase Profiling at Thermo Fisher Scientific (Madison, WI). The primary screen consisted of INX-315 dosed at a single concentration of 100 nmol/L in 1% DMSO across each platform within the SelectScreen array of assays, LanthaScreen Eu Kinase Binding Assay; AdaptaScreen; and Z'LyteScreen using preestablished conditions at Thermo Fisher Scientific as shown in Supplementary Table S2. […] The follow-up screen consisted of 10-point dose–response curves for INX-315 from 1 µmol/L to 0.0495 nmol/L.

KIT T670I = biological target: T34, KIT T670I (Homo sapiens, UniProt P10721, T670I); experiment: SelectScreen ZLYTE; assay type: biochemical
T34 construct: purchased Thermo Fisher Scientific SelectScreen (plus Nanosyn / Reaction Biology for CDK/cyclin lines)
Source text: as §2

MAP3K8 (COT) = biological target: T35, MAP3K8 (COT) (Homo sapiens, UniProt P41279); experiment: SelectScreen ZLYTE; assay type: biochemical
T35 construct: purchased Thermo Fisher Scientific SelectScreen (plus Nanosyn / Reaction Biology for CDK/cyclin lines)
Source text: as §2

MET M1250T = biological target: T36, MET M1250T (Homo sapiens, UniProt P08581, M1250T); experiment: SelectScreen ZLYTE; assay type: biochemical
T36 construct: purchased Thermo Fisher Scientific SelectScreen (plus Nanosyn / Reaction Biology for CDK/cyclin lines)
Source text: as §2

PDK1 = biological target: T37, PDK1 (Homo sapiens, UniProt O15530); experiment: SelectScreen ZLYTE; assay type: biochemical
T37 construct: purchased Thermo Fisher Scientific SelectScreen (plus Nanosyn / Reaction Biology for CDK/cyclin lines)
Source text: as §2

PIM2 = biological target: T38, PIM2 (Homo sapiens, UniProt Q9P1W9); experiment: SelectScreen ZLYTE; assay type: biochemical
T38 construct: purchased Thermo Fisher Scientific SelectScreen (plus Nanosyn / Reaction Biology for CDK/cyclin lines)
Source text: as §2

T37 sequence (O15530 whole entry): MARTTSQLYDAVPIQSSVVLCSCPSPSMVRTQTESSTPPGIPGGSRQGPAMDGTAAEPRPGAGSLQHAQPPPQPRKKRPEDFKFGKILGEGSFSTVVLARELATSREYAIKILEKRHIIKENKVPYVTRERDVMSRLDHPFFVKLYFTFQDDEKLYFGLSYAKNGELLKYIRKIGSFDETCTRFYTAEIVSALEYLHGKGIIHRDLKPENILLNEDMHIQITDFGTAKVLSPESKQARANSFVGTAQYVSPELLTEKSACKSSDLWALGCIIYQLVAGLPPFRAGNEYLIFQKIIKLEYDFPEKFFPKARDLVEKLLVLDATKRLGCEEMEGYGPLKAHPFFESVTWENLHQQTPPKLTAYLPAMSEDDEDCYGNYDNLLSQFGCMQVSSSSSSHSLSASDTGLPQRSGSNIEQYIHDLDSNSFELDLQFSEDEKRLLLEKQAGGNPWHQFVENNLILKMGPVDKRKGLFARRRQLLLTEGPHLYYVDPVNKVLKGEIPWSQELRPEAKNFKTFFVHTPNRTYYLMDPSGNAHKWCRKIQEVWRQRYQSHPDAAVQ
T34 sequence (P10721 26-976 T670I): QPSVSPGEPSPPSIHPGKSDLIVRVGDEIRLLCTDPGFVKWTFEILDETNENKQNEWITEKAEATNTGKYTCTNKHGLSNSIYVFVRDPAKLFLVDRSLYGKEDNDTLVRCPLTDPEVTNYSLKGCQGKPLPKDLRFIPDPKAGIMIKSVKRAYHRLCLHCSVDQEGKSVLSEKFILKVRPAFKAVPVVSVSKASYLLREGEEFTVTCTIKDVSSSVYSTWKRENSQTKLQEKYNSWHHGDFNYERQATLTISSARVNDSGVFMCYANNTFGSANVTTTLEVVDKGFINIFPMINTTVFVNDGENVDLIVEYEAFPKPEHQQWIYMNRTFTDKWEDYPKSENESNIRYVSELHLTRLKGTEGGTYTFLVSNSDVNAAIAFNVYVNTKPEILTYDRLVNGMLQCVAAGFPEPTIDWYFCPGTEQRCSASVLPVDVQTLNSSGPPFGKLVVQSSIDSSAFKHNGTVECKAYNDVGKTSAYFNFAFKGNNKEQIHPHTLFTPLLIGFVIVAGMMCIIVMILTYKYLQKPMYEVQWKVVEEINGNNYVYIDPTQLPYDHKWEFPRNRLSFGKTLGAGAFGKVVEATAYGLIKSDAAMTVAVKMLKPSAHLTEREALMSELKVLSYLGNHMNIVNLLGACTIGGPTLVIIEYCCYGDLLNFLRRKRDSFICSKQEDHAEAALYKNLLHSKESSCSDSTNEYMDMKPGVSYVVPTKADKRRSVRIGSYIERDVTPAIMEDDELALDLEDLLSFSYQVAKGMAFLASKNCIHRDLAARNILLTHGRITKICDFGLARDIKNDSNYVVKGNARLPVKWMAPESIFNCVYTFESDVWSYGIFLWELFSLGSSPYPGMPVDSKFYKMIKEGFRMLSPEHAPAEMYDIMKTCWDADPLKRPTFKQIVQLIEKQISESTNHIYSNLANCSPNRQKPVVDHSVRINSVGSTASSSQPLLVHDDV
T33 sequence (P43250 whole entry): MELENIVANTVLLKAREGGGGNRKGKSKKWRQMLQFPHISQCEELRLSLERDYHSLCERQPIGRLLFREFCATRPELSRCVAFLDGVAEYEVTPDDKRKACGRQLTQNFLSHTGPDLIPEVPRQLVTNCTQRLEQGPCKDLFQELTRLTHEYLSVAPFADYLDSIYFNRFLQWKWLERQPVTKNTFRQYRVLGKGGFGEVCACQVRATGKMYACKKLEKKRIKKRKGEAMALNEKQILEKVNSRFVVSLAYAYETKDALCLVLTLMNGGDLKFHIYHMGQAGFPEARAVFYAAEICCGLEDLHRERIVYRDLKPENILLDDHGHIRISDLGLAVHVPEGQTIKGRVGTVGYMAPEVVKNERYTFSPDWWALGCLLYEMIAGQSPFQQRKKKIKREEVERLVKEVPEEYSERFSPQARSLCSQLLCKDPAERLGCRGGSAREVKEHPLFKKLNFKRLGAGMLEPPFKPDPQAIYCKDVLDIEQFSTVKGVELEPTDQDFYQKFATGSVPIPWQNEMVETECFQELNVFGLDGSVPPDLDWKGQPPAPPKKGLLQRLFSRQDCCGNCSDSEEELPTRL
T3 sequence (P37023 22-503): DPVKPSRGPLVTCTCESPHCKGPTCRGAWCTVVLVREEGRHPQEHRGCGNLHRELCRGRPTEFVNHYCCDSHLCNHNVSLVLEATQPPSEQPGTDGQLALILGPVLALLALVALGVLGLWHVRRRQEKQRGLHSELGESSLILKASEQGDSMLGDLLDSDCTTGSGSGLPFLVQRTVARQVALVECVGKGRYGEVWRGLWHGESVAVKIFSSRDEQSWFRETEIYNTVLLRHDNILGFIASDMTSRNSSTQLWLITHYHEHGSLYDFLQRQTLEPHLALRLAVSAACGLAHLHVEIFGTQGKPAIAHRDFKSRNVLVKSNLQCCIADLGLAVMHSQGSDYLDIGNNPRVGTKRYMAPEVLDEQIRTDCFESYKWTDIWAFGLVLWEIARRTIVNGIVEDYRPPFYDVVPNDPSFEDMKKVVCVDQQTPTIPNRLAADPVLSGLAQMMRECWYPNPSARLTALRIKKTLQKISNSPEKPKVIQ
T22 sequence (Q86SG6 whole entry): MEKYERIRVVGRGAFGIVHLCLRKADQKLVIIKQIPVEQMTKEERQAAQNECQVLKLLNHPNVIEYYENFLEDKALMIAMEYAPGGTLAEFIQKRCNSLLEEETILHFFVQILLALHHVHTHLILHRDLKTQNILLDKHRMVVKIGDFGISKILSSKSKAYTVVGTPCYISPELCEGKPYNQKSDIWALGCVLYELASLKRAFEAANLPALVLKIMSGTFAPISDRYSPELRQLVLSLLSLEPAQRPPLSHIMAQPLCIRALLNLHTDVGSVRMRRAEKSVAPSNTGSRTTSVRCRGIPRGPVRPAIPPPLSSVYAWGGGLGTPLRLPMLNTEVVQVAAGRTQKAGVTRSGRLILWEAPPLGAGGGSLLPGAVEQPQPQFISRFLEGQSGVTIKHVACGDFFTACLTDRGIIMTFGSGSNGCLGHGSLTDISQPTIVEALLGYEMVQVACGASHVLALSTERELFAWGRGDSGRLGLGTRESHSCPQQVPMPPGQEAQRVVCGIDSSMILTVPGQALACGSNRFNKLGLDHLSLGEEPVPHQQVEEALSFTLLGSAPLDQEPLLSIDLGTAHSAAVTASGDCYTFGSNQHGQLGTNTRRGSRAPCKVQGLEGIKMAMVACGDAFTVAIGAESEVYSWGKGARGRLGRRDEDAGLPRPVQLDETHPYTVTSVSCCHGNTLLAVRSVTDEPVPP
T18 sequence (Q99558 whole entry): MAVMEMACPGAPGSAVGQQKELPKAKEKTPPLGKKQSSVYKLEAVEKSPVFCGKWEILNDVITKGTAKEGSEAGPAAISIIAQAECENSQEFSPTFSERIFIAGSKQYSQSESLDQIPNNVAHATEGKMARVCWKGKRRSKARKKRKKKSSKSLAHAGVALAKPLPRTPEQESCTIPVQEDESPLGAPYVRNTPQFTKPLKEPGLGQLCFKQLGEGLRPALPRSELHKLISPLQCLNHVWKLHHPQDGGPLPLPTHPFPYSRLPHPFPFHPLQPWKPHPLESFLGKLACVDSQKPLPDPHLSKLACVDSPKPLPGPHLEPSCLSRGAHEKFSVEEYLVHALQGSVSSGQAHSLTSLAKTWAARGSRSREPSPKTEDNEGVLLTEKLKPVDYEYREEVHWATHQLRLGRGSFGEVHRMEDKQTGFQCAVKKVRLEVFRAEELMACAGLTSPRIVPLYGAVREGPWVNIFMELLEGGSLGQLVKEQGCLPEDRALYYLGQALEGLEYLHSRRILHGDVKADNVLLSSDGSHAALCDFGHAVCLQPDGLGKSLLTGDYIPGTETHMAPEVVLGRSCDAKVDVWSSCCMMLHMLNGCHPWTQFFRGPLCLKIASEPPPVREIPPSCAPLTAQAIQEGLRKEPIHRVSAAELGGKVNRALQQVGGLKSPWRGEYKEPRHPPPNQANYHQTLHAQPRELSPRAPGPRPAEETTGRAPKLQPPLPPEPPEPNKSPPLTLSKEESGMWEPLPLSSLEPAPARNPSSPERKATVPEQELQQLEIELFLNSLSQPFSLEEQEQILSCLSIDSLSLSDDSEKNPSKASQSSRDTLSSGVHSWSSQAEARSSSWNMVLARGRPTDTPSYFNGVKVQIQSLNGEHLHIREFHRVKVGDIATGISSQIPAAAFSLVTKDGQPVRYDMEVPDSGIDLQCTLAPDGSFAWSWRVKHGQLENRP
T7 sequence (O94921 whole entry): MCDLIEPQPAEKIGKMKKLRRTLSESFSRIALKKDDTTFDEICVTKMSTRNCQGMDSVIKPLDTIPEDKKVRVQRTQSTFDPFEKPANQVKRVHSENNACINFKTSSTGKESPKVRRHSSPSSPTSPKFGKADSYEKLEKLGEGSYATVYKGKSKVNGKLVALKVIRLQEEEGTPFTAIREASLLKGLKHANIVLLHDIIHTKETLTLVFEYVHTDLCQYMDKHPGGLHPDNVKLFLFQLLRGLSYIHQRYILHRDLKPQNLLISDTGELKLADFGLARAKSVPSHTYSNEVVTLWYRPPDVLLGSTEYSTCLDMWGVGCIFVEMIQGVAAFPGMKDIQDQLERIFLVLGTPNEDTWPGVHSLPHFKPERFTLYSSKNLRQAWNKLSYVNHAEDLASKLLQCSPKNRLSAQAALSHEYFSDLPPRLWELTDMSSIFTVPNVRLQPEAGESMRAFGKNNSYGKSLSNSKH
T7 sequence (Q8ND76 whole entry partner): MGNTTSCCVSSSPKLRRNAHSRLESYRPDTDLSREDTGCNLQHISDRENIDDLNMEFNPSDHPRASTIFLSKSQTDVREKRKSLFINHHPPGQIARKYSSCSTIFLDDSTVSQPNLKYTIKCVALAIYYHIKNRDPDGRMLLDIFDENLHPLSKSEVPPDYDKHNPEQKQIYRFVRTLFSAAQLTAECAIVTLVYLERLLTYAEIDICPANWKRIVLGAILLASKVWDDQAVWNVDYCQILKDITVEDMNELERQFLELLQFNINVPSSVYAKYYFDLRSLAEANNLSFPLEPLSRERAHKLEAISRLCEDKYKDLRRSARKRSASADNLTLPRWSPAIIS

NS(=O)(=O)c1ccc(Nc2ncc3cc4n(c3n2)C2(CCCCC2)C(=O)NN4)cc1 [INX-315]
inhibition at 0.1 µM (ABL1 M351T): 13% | inhibition at 0.1 µM (ACVR1 (ALK2) R206H): -1% | inhibition at 0.1 µM (ACVRL1 (ALK1)): 2% | inhibition at 0.1 µM (AMPK (A1/B1/G3)): 19% | inhibition at 0.1 µM (CAMKK2 (CaMKK beta)): 3% | inhibition at 0.1 µM (CDK13/cyclin K): 39% | inhibition at 0.1 µM (CDK14 (PFTK1)/cyclin Y): 24% | inhibition at 0.1 µM (CDK5 (Inactive)): 80% | inhibition at 0.1 µM (CDK9 (Inactive)): 44% | inhibition at 0.1 µM (CLK4): -2% | inhibition at 0.1 µM (DYRK2): -4% | inhibition at 0.1 µM (FGFR3 K650M): 14% | inhibition at 0.1 µM (IRAK3): 45% | inhibition at 0.1 µM (LIMK1): 34% | inhibition at 0.1 µM (LIMK2): 22% | inhibition at 0.1 µM (MAP2K2 (MEK2)): 0% | inhibition at 0.1 µM (MAP2K5 (MEK5)): 27% | inhibition at 0.1 µM (MAP3K14 (NIK)): -2% | inhibition at 0.1 µM (MET D1228H): -6% | inhibition at 0.1 µM (MKNK2 (MNK2)): 2% | inhibition at 0.1 µM (MYO3A (MYO3 alpha)): 6% | inhibition at 0.1 µM (NEK8): 0% | inhibition at 0.1 µM (NUAK2): 35% | inhibition at 0.1 µM (PKMYT1): -2% | inhibition at 0.1 µM (RET V804M): 21% | inhibition at 0.1 µM (SIK1): 4% | inhibition at 0.1 µM (TAOK1): 22% | inhibition at 0.1 µM (TAOK3 (JIK)): 4% | inhibition at 0.1 µM (TEC): 4% | inhibition at 0.1 µM (TEK (TIE2) Y1108F): 2% | inhibition at 0.1 µM (TLK2): 13% | inhibition at 0.1 µM (ULK3): 25% | inhibition at 0.1 µM (GRK6): 30% | inhibition at 0.1 µM (KIT T670I): 7% | inhibition at 0.1 µM (MAP3K8 (COT)): -1% | inhibition at 0.1 µM (MET M1250T): 3% | inhibition at 0.1 µM (PDK1): 7% | inhibition at 0.1 µM (PIM2): 5%
